The test deals with T1, MMP-13 (Homo sapiens, UniProt P45452).
T1 construct: purchased Invitek GmbH, Berlin, Germany HM 13110010
Briefly: MMP-13 marker substrate conversion (fluorescence) in the presence of collagen II and test substance. The following applies: control without test substance 49%. The class given is biochemical. The procedure:
MMP-13 was obtained as a commercial product (Cat. No. HM 13110010) from Invitek GmbH, Berlin, Germany, activated according to the manufacturer's instruction, and diluted to 10 μg/10 ml with TCB buffer. TCB buffer was prepared by dissolving 10 mM tris(hydroxymethyl)aminomethane (Sigma-Aldrich Chemie GmbH, Deisenhofen, Germany) in water and adjusting the pH to 7.5 with HCl. 100 mM CaCl2×2H2O (Merck KGaA, Darmstadt, Germany) and 0.05% of Brij 35 solution, 30% (w/v) (Sigma-Aldrich Chemie GmbH, Deisenhofen, Deutschland), are added to said solution.
A solution of 10 mmol/l (7-methoxycoumarin-4-yl )acetyl-Pro-Leu-Gly-Leu-(3-[2,4-dinitrophenyl]-L-2,3-diaminopropionyl)-Ala-Arg-[…] (SEQ ID NO: 1). (Bachem Biochemica GmbH, Heidelberg, Germany) in dimethyl sulfoxide (DMSO) (Riedel-de Haen AG, Seelze, Germany) was diluted 1:40 (v/v) with water.
10 mg of human […] (Biocon, Potsdam, Germany) were dissolved in 2400 μl of 10 mmol/l acetic acid (72 hours at 4° C.), and then 1300 μl of a sodium bicarbonate solution (250 mmol/l) CaCl2×2H2O (Merck KGaA, Darmstadt, Germany) were added dropwise.
Test substance (suspected inhibitor or ligand), typically dissolved in water at an appropriate concentration relative to the amount of enzyme used.
The components A) (25 μl), B) (5 μl), C) (10 μl) and D) (10 μl) were mixed in a total volume of 50 μl, and fluorescence was measured in a commercial spectrofluorimeter after 15 minutes (excitation at 330 nm, emission at 390 nm, Spectrafluor plus, Tecan Deutschland GmbH, Crailsheim, Germany).
Enzyme and inhibitor were preincubated at room temperature for 15 min. The reaction was started by adding 5 μl of marker substrate solution (component B at 25 μM).
The fluorescence in example 1 was set at 100%, and the measured values of the other examples are based on this value.

The mark [1] stands for this setting: 200 μmol/l test substance, components A (MMP-13), B (marker substrate), C (collagen II) present.

As to `C[C@H]1c2cccc(O)c2C(=O)C2=C(O)[C@]3(O)C(=O)C(C(N)=O)=C(O)[C@@H](N(C)C)[C@@H]3[C@@H](O)[C@@H]21` [doxycycline], the “Measured value (fluorescence, example 1 set at 100%)” value under setting [1] is on record as 0%.
For the molecule `Fc1ccc(/C(=C\CCN2CCC(=C(c3ccccc3)c3ccccc3)CC2)c2ccccc2)cc1` [substance (I), 4-(diphenylmethylene)-1-[4-(p-fluorophenyl)-4-phenyl-3-butenyl]piperidine], the “Measured value (fluorescence, example 1 set at 100%)” value is, setting by setting: under setting [1], 59%; (200 μmol/l test substance, components A (MMP-13), B (marker substrate), C (collagen II) present, listed as (I)) 59%.
As to protamine sulfate, the “Measured value (fluorescence, example 1 set at 100%)” value (60 μg/well (60 μg/50 μl) test substance, components A, B, C present) is on record as 73%.
